In US20120122870A1, “Treatment Of Ischemia-Reperfusion Injury” (MUSC FOUNDATION FOR RESEARCH DEVELOPMENT, priority 2009, published 2012):
Entries after “also recorded” stand apart in the source; their conditions may differ.

System: non-heart-beating liver transplantation in Lewis rats
Assay: Non-heart-beating donor liver transplantation, graft necrosis (H+E)
Assay type: in vivo
Conditions: 30-min aorta clamping, 4-hour cold storage; grafts harvested 18 h after implantation
Excerpt: ABC294640 improves the outcome of non-heart-beating liver transplantation. The severe donor organ shortage could be reduced by the use of marginal livers for transplantation. Currently only livers from brain-dead, heart-beating donors (HBD) are used for transplantation since liver grafts from non-heart-beating donors frequently fail after transplantation. Development of a method to improve survival of grafts from NHBD is critical to expand the usable liver donor pool. Grafts from NHBD experience longer warm ischemia before liver retrieval, which likely upregulates SK to a higher extent compared to those from HBD. Therefore, we performed a pilot study to test if ABC294640 improves the outcome of non-heart-beating liver transplantation. Livers were explanted from Lewis rats after 30-min of aorta clamping to mimic non-heart-beating donation and implanted after 4-hour storage in UW solution at 0-1° C. […] In cold-stored, untransplanted livers from NHBD, although some cell swelling was observed, no necrosis occurred (FIG. 19, upper right). After transplantation of livers from HBD, small focal necrosis occurred (FIG. 19, middle left). […] Necrotic areas in sections were quantified by image analysis using an Image-1/AT image acquisition and analysis system (Universal Imaging Corp., West Chester, Pa.) incorporating an Axioskop 50 microscope (Carl Zeiss, Inc., Thornwood, NY) and a 10× objective lens.

O=C(NCc1ccncc1)C12CC3CC(C1)CC(c1ccc(Cl)cc1)(C3)C2 [ABC294640, 3-(4-chlorophenyl)-N-(pyridin-4-ylmethyl)adamantane-1-carboxamide]
necrotic areas in transplanted livers from non-heart-beating donors: substantially decreased; also recorded: attenuates necrosis
